According to patent publication US11098034B2, “Pyrazolyl substituted carbonic acid derivatives as modulators of the prostacyclin (PGI2) receptor useful for the treatment of disorders related thereto” (Arena Pharmaceuticals, Inc., priority 2008, dated 2021):

Test system: MCT-induced pulmonary arterial hypertension in rat
Experiment: Rat monocrotaline model of pulmonary arterial hypertension
Type: in vivo
Details: male Wistar rats, MCT 60 mg/kg s.c.; test compound 30 mg/kg oral gavage twice a day for 21 days; heart weights Day 22
Experimental: Animals: Male Wistar rats (100-150 g at start of study) (Charles River Laboratories, Wilmington, Mass.) were housed two per cage and maintained in a humidity—(40-60%) and temperature—(68-72° F.) controlled facility on a 12 hr:12 hr light/dark cycle (lights on at 6:30 am) with free access to food (Harlan Teklad, Orange Calif., Rodent Diet 8604) and water. Rats were allowed one week of habituation to the animal facility before testing.
Rat monocrotaline model: The rat monocrotaline (MCT) model is a standard and well-accepted model of pulmonary arterial hypertension. MCT induces acute pulmonary endothelial damage associated with pulmonary vascular inflammation. […]
Rats were randomly given a single subcutaneous injection of either 60 mg/kg MCT (Sigma, St. Louis, Mo.) or 0.9% saline (sham) and assigned to receive oral administration of 20% hydroxypropyl beta-cyclodextrin (vehicle) or test compound (30 mg/kg; FIGS. 1 and 2). […] Heart chamber weights were measured on Day 22. […] The ratio of right ventricular (RV) weight to left ventricle plus septum (LV+S) weight (this ratio is indicated as “RV/(LV+S)” in FIGS. 1 and 2) was calculated as an index of the hypertrophic response to the induced pulmonary arterial hypertension and, as such, as an index of a test compound's therapeutic efficacy for pulmonary arterial hypertension.

SMILES | hypertrophic response to the induced pulmonary arterial hypertension, RV/(LV+S)
COc1cccc(-c2c(-c3ccccc3)nn(C[C@H]3CC[C@@H](COCC(=O)O)CC3)c2C)c1 [Compound 14, 2-(((1s,4s)-4-((4-(3-Methoxyphenyl)-5-methyl-3-phenyl-1H-pyrazol-1-yl)methyl)cyclohexyl)methoxy)acetic Acid] | inhibited the hypertrophic response
COc1cccc(-c2c(-c3ccccc3)nn(C[C@H]3CC[C@@H](COCC(=O)O)CC3)c2SC)c1 [Compound 31, 2-(((1s,4s)-4-((4-(3-Methoxyphenyl)-5-(methylthio)-3-phenyl-1H-pyrazol-1-yl)methyl)cyclohexyl)methoxy)acetic Acid] | inhibited the hypertrophic response
